According to patent publication US10982192B2, “Method for the induction of arterial-type of hemogenic endothelium from hPSCS” (Wisconsin Alumni Research Foundation, priority 2017, dated 2021):

What was measured:
D4 HE cells = test: Annexin V flow cytometric analysis of apoptosis; format: cell-based, human; details: D4+4
NOTCH1 = test: Western blot of activated cleaved NOTCH1 (NOTCH:ICD) in D4 HE; format: cell-based, human; details: D4 HE cultured for 24 h (D4+1); DAPT 10 μM or immobilized DLL1-Fc
Description: (§1) Human pluripotent stem cells, H1 hESC line, DF19-9-7T fibroblast-hiPSC line, IISH2i-BM9 bone marrow-iPSC line, and IISH3i-CB6 cord blood-iPSC line, were maintained and passaged in chemically defined conditions using vitronectin and E8 medium, as previously described^85. The human PSCs were differentiated into hematoendothelial lineages using a modified protocol previously described^35. On Day −1, hPSCs were singularized and plated on collagen IV-coated plates (0.5 μg/cm^2) at a cell density of 7,500 cells/cm^2 in E8 medium supplemented with 10 uM Rock inhibitor (Y-27632, Cayman Chemicals). On Day 0, the medium was changed to IF9S medium supplemented with BMP4, FGF2 (50 ng/ml), Activin A (15 ng/ml, Peprotech), LiCl (2 mM, Sigma), and ROCK inhibitor (0.5 μM, Cayman Chemicals) and cultured in hypoxia (5% O2, 5% CO2). On day 2, the medium was changed to IF9S medium supplemented with FGF2, VEGF (50 ng/ml, Peprotech), and 2.5 μM TGFβ inhibitor (SB-431542, Cayman Chemicals). On day 4, cell cultures were singularized and stained with anti-CD31 microbeads (Miltenyi) for 15 minutes. Cells were washed and HE were purified using CD31 antibody and MACS LS columns (Miltenyi). […] A sample of the purified cells was analyzed by flow cytometry, and experiments were continued only if the purity of the HE was over 95% CD144^+. […]

[1] = system: cells collected from D4+4 HE cultures; test: Hematopoietic colony forming unit assay; format: cell-based, human; details: cells from D4+4 HE cultures in methocellulose, vs control
Description: Hematopoietic colony forming unit assay was conducted in serum-containing H4436 Methocult (Stem Cell Technologies) as previously described^26, 35.

D4 HE = test: Single-cell deposition assay for endothelial-to-hematopoietic transition on OP9-iDLL4; format: cell-based, human; details: OP9-iDLL4 without DOX-pretreatment, DAPT 20 μM, compared to control condition
Description: One day before single-cell deposition, the OP9-iDLL4 cell line was treated with mitomycin C as described above, and passaged into 96-well plates at a density of 12,500 cells/cm2. OP9-iDLL4 used for the NOTCH activation condition was incubated with doxycycline for 24 hours after passaging into 96-well plates. On the day of single-cell sorting, OP9-iDLL4 medium was changed to αMEM with 10% FBS (GE), TPO, SCF, IL-6 (50 ng/ml), IL-3, FLT3L (10 ng/ml), and DMSO (1:500) for the control, and NOTCH activation conditions, or DAPT (20 μM) for the NOTCH inhibition condition. Day 4 differentiated human pluripotent stem cells were singularized, stained for CD309-PE and CD144-APC (Miltenyi Biotech), and single-cell sorted into individual wells of the 96-well plates using a FACS Aria II. To exclude possibility of doublets, we used a low density (less than 1 million cells/ml) cells suspension, sorting speed less than 1000 cellular events/per second and stringent gating on single cells using both FSC-A vs FSC-H and SSC-A vs SSC-H. One day after sorting, the medium was changed to fresh medium without DMSO or DAPT, and extra medium was added every 3 days. […]

D5 HE:DLL4+ = test: Blood production from D5 HE:DLL4+ in OP9 co-culture with NOTCH inhibition; format: cell-based, human; details: treatment from D5 to D5+2, D5+2 to D5+4, and D5 to D5+4; 20 μM
Description: (§2) OP9, OP9-DLL4, and the inducible OP9-iDLL4 (made in-house) cell lines were maintained in αMEM with 20% FBS (GE) on gelatin-coated plates in normoxia as previously described^86. Using TrypLE (Thermo), OP9 were passaged at a 1:8 ratio every 3-4 days when they were 80% confluent. One day before co-culture with differentiated human HE cells, OP9 lines were treated with mitomycin C (1 mg/ml) for 2 hours and then plated at a density of 12,500 cells/cm^2 as previously described^87. D4 HE cells or D5 CD144^+ subsets were plated onto OP9 lines at a density between 1000 to 2000 cells/cm^2 in medium containing αMEM with 10% FBS (GE), TPO, SCF, IL-6 (50 ng/ml), IL-3, and FLT3L (10 ng/ml). Medium was changed after 24 hours, and extra medium added 2 days later. Experiments conducted with DAPT were treated with 20 μM, while corresponding control conditions had DMSO added at a 1:500 dilution.

D4+4 CD43+ cells = test: T-cell differentiation of D4+4 cultures on OP9-DLL4; format: cell-based, human
Description: Total D4+4 cultures were singularized, strained, and cultured in T-cell differentiation conditions on OP9-DLL4 for 3 weeks as described^35. For D5+4 cultures, only the floating hematopoietic cells were collected and cultured in T-cell differentiation conditions. Limiting Dilution Assays were conducted with the floating cells collected from D5+4 cultures (HE:DLL4^− on OP9+DAPT, OP9+DMSO, and OP9-DLL4, and HE:DLL4^+ on OP9-DLL4). Row A of a 96-well plate received 500 cells/well, and each subsequent row afterwards had half the previous row (Row B contained 250, Row C contained 125 . . . Row H contained 3-4 cells). The wells were scored 2 weeks later by eye and flow-cytometry for CD5^+CD7^+ containing cells. Positive threshold was set at 167 CD5^+CD7^+ cells/well. Extreme limiting dilution analysis was conducted using the previously established algorithm^88

HES1 = test: qPCR of NOTCH1 target gene HES1 in D4 HE; format: cell-based, human; details: D4 HE cultured for 12 hours (D4+0.5)
Description: as §1, with “CO2).” for “CO2). On day 2, the medium was changed to IF9S medium supplemented with FGF2, VEGF (50 ng/ml, Peprotech), and 2.5 μM TGFβ inhibitor (SB-431542, Cayman Chemicals). On day 4, cell cultures were singularized and stained with anti-CD31 microbeads (Miltenyi) for 15 minutes. Cells were washed and HE were purified using CD31 antibody and MACS LS columns (Miltenyi).”
Cells were differentiated for the respective days and sorted on a FACS Aria II. RNA was collected using RNA MiniPrep Plus (Invitrogen) and quantified on a NanoDrop (GE Healthcare). […] The reactions were run on a Mastercycler RealPlex Thermal Cycler (Eppendorf) and the expression levels were calculated by minimal cycle threshold values (Ct) normalized to the reference expression of RPL13a. […]

[2] = system: D4 CD144+CD43-CD73- HE cells; test: Flow cytometry of CD144/CD43 in secondary culture of D4 HE (hematopoiesis/EHT), serum- and feeder-free; format: cell-based, human
Description: Human pluripotent stem cells, H1 hESC line, DF19-9-7T fibroblast-hiPSC line, IISH2i-BM9 bone marrow-iPSC line, and IISH3i-CB6 cord blood-iPSC line, were maintained and passaged in chemically defined conditions using vitronectin and E8 medium, as previously described^85. The human PSCs were differentiated into hematoendothelial lineages using a modified protocol previously described^35. On Day −1, hPSCs were singularized and plated on collagen IV-coated plates (0.5 μg/cm^2) at a cell density of 7,500 cells/cm^2 in E8 medium supplemented with 10 uM Rock inhibitor (Y-27632, Cayman Chemicals). On Day 0, the medium was changed to IF9S medium supplemented with BMP4, FGF2 (50 ng/ml), Activin A (15 ng/ml, Peprotech), LiCl (2 mM, Sigma), and ROCK inhibitor (0.5 μM, Cayman Chemicals) and cultured in hypoxia (5% O2, 5% CO2). On day 2, the medium was changed to IF9S medium supplemented with FGF2, VEGF (50 ng/ml, Peprotech), and 2.5 μM TGFβ inhibitor (SB-431542, Cayman Chemicals). On day 4, cell cultures were singularized and stained with anti-CD31 microbeads (Miltenyi) for 15 minutes. Cells were washed and HE were purified using CD31 antibody and MACS LS columns (Miltenyi). Purified CD31^+ HE were then plated at a density of 20,000 to 30,000 cells/cm^2 on collagen IV-coated plates (1 μg/cm^2) that were either co-coated with IgG-Fc fragments or human DLL1-Fc (made in-house), in IF9S medium supplemented with FGF2, VEGF, EGF, IGF-I, IGF-II, TPO, IL-6 (50 ng/ml), SCF (20 ng/ml), IL-3, FLT3L (10 ng/ml, Peprotech), and ROCK inhibitor (5 μM, Cayman Chemicals), and where specified, DMSO (1:1000, Fisher Scientific) or DAPT (10 μM, Cayman Chemicals), and cultured in normoxia (20% O2, 5% CO2). In some experiments, HE was cultured on plates co-coated with human JAG1-Fc (R&D Systems). A sample of the purified cells was analyzed by flow cytometry, and experiments were continued only if the purity of the HE was over 95% CD144^+. On Day 4+1, the medium was replaced with fresh medium containing the same supplements without ROCK inhibitor. […]

[3] = system: CD34+CD43-CD73- HE progenitors; details: NOTCH inhibition; cited from earlier work
Runx1+23 enhancer = test: Runx1+23-eGFP reporter flow cytometry; format: cell-based, human; details: D4 HE cultured with DAPT or on DLL1-Fc
Description: Runx1+23 enhancer fragment^33 was amplified by PCR and subsequently cloned into the AAVS-SA-2A-PURO vector (gift from Gadue Lab, The Children's Hospital of Philadelphia). Human ESCs were transfected with zinc-finger nuclease vectors and later puromycin-resistant individual cells were clonally expanded and on-targeted clones were selected, as previously described^38. Southern Blot (SB) analysis was performed by DIG-labeling hybridization (Roche). Briefly, 10 μg genomic DNA was digested using a EcoRV restriction enzyme for overnight, separated on a 0.7% agarose gel for 6 hours, transferred to a nylon membrane (Amersham), and incubated with DIG-labeling probes. The external probe is a DIG-labeled 600 nucleotide fragment that binds to the EcoRV-digested fragment of the 5′ external region. The internal probe is a DIG-labeled 700 nucleotide fragment that binds to the EcoRV-digested fragment of the of the eGFP region.
Flow Cytometry was conducted using the MACSQuant 10 (Miltenyi Biotech). FACS-sorting was conducted on a FACS Aria II (BD) as previously described^26, 35, 86.

D5 HE:DLL4- = test: Blood production from D5 HE:DLL4- in OP9 co-culture with NOTCH inhibition; format: cell-based, human; details: DAPT 20 μM
Description: as §2

D4 CD31+ HE cells = test: CellTracer proliferation assay and EdU cell cycle analysis; format: cell-based, human
Description: D4 CD31^+ HE cells were incubated in PBS with CellTracer (1 μg/ml, Thermo) for 20 minutes at 37° C. After washing, the cells were plated on collagen IV-coated plates with either Fc-IgG or DLL1-Fc and the modified Day 4 medium, as described above, at a higher density of 30,000 to 40,000 cells/cm^2 due to toxicity from the CellTracer. Aliquots of the purified cells were analyzed by flow cytometry to determine the purity of the MACS cells and establish the Generation 0 peak for the proliferation assay. Secondary cultures were collected every day after plating for flow cytometry analysis, and calibration beads were used to generate compatible CellTracer results. After D4+4, FlowJo™ Analysis software was used to concatenate the data from each day. The average number of cell divisions was calculated based on the number of cells on each day (FIG. 1F) and applied to the proliferation platform algorithm in FlowJo™ to determine the specific generation gates. Those peaks were re-applied to individual sets of data to determine the percentage of each generation within the hematoendothelial populations. For cell cycle analysis, D4+4 cells were incubated in culture medium with EdU (10 μM, Thermo Fisher) for 2 hours and stained with CD43 and CD144 antibodies for 20 min. […]

## C[C@H](NC(=O)Cc1cc(F)cc(F)c1)C(=O)N[C@H](C(=O)OC(C)(C)C)c1ccccc1 [DAPT]
D4 HE cells
  apoptosis of blood cells post-transition: none of the conditions affected apoptosis
NOTCH1
  activated cleaved form of NOTCH1: decrease
[1]
  total number of colonies: significantly lower
D4 HE
  ratio of hematopoietic/endothelial colonies: markedly decreased
D5 HE:DLL4+
  hematopoietic activity of the HE:DLL4+ population: significantly inhibited hematopoietic activity
D4+4 CD43+ cells
  T-cell potential of HPs: no T-cell potential
HES1
  HES1 mRNA expression: decreased
[2]; each day from D4+1 to D4+4
  CD43+ HPs: decreased CD43+ HPs
[2]; treated for 24-hours from D4 to D4+1
  CD43hi CD144- cells on D4+2 through D4+4: significant drop
[2]; treatment throughout (D4 to D4+4)
  hematopoiesis: more profoundly decreased hematopoiesis
[3]
  production of CD45+ cells: reduces production of CD45^+ cells
Runx1+23 enhancer
  Runx1+23 enhancer activity (eGFP): decreases
D5 HE:DLL4-
  hematopoietic activity of HE:DLL4- cultures: no effect on hematopoietic activity
D4 CD31+ HE cells; D4+4
  cycling CD43+ cells (EdU): no differences
D4 CD31+ HE cells; D4+4, treated through D4+4
  distribution of CD43+ cells within each generation: no significant shift
